Values of other authors in the PKSmart pharmacokinetics tables (Seal et al. 2025).

Assay: not given per row; by the article one of three: Lombardo et al. 2013, J Clin Pharmacol 53:178, doi 10.1177/0091270012440282; 'New Drugs at FDA', novel drug approvals for 2021 and 2022 (the article's reference 43); Yap, Li, Chen 2006, J Mol Graph Model 24:383, doi 10.1016
Details: human; in vivo
In the case of `CC(C)[C@@H](C)[C@@]1(C)CC[C@]2(C)[C@H]3CC[C@@H]4[C@@]5(COC[C@@]4(C)[C@@H](OC[C@](C)(N)C(C)(C)C)[C@H](n4ncnc4-c4ccncc4)C5)C3=CC[C@@]2(C)C1C(=O)O` (stereo partly drawn), the Vd is listed as 10 L/kg and the half-life is listed as 20 h. For `Cc1cn([C@@H]2C=C[C@H](CO)O2)c(=O)[nH]c1=O`, the clearance is listed as 8.24 mL/min/kg. In the case of `O=C(O)C1/C(=C\CO)O[C@H]2CC(=O)N12` (stereo partly drawn), the clearance is listed as 3.6 mL/min/kg. For `Nc1nc(F)nc2c1ncn2[C@@H]1O[C@@H](COP(=O)(O)O)[C@@H](O)[C@@H]1O`, the clearance is given as 3.7 mL/min/kg. In the case of `Cc1nc(C)c2c(n1)N(Cc1ccc(-c3ccccc3-c3nnn[nH]3)cc1)C(=O)CC2`, the clearance is listed as 7.17 mL/min/kg. For `C[C@@H]1c2cccc(O)c2C(=O)C2=C(O)[C@]3(O)C(=O)C(C(N)=O)=C(O)[C@H](N(C)C)[C@H]3[C@H](O)[C@H]21`, the clearance is listed as 0.52 mL/min/kg. In the case of `CN1CCN(c2ccc(Nc3ncc4cc5n(c4n3)C3(CCCCC3)CNC5=O)nc2)CC1`, the Vd is listed as 18.8 L/kg, the clearance is listed as 41.7 mL/min/kg and the half-life is listed as 14 h. In the case of `C[C@H]1CN(c2cc3c(cc2F)c(=O)c(C(=O)O)cn3-c2ccc(F)cc2F)CCN1`, the clearance is given as 3.19 mL/min/kg. For `CC1(C)S[C@H]2C(NC(=O)C(NC(=O)N3CCNC3=O)c3ccccc3)C(=O)N2C1C(=O)O` (stereo partly drawn), the clearance is listed as 2.52 mL/min/kg. For `C=C[C@H](N)CCC(=O)O`, the clearance is listed as 0.74 mL/min/kg. For `Cc1ccc2nc(N)[nH]c(=O)c2c1Sc1ccncc1`, the clearance is given as 2.36 mL/min/kg. For `COC(=O)C1=C(C)NC(C)=C(C(=O)OC(C)C)[C@H]1c1cccc2nonc12`, the clearance is given as 9.52 mL/min/kg. For `CC(C)(C)NC[C@@H](O)COc1cccc2c1SCCC2`, the clearance is listed as 1.86 mL/min/kg. For `CCN1C[C@@H](CCN2CCOCC2)C(c2ccccc2)(c2ccccc2)C1=O`, the clearance is given as 5.75 mL/min/kg. In the case of `COCc1c(-c2ccc(F)cc2)c(=CC[C@H](O)C[C@H](O)CC(=O)O)c(C(C)C)nc1=C(C)C`, the clearance is listed as 2.98 mL/min/kg. For `O[P+](O)(O)C(Cl)(Cl)[P+](O)(O)O`, the clearance is listed as 2.2 mL/min/kg. For `CC[C@H](CO)NCCN[C@@H](CC)CO`, the clearance is listed as 8.05 mL/min/kg. For `O=C(c1ccc(NS(=O)(=O)c2cccc3cccnc23)cc1)N1CCN(CC2CC2)CC1`, the Vd is listed as 0.71 L/kg, the clearance is listed as 3.47 mL/min/kg and the half-life is listed as 4 h. In the case of `CCCCC[C@H](O)CC[C@@H]1C2Cc3cccc(OCC(=O)O)c3C[C@@H]2C[C@@H]1O` (stereo partly drawn), the clearance is given as 7.14 mL/min/kg. For `O=C(CO)NCCCOc1cccc(CN2CCCCC2)c1`, the clearance is listed as 6.73 mL/min/kg. In the case of `CON=C(C(=O)NC1C(=O)N2C(C(=O)[O-])C(=C[N+]34CCC(C(N)=O)(CC3)CC4)CSC12)c1nsc(N)n1` (stereo not drawn), the Vd is given as 0.27 L/kg and the clearance is given as 1.7 mL/min/kg. In the case of `CCOC(=O)NC1=C(N2CC2)C(=O)C(NC(=O)OCC)=C(N2CC2)C1=O`, the clearance is listed as 11 mL/min/kg. For `O=C(NC(C(=O)NC1C(=O)N2C(C(=O)O)C(=C[n+]3ccc(CCS(=O)(=O)[O-])cc3)CSC12)c1ccccc1)c1nc[nH]c1C(=O)O` (stereo not drawn), the Vd is listed as 0.21 L/kg and the clearance is listed as 1.7 mL/min/kg. In the case of `CO[C@]1(NC(O)=c2sc(=C(C(N)=O)C(=O)O)s2)C(=O)N2C(C(=O)O)=C(CSc3nnnn3C)CS[C@@H]21`, the clearance is listed as 0.63 mL/min/kg. In the case of `C[C@@H]1C[C@H]2[C@@H]3C[C@H](F)C4=CC(=O)C=C[C@]4(C)[C@@]3(F)[C@H](O)C[C@]2(C)[C@@]1(O)C(=O)SCF`, the clearance is listed as 15.6 mL/min/kg. In the case of `CCN1CCC[C@@H]1CNC(=O)c1cc(S(=O)(=O)CC)c(N)cc1OC`, the clearance is given as 7.8 mL/min/kg. In the case of `C[C@H](O)C1C(=O)N2C(C(=O)[O-])=C(SC3Cn4cnc[n+]4C3)[C@@H](C)[C@@H]12` (stereo partly drawn), the clearance is listed as 2.77 mL/min/kg. In the case of `Oc1ccc2c3c1O[C@@H]1[C@@H](O)CC[C@]4(O)[C@H](C2)N(CC2CCC2)CC[C@@]314`, the clearance is listed as 29.7 mL/min/kg. For `CCC[C@H]1CC(C(=O)N[C@@H]([C@H]2O[C@@H](SC)[C@H](O)[C@@H](O)[C@@H]2O)[C@H](C)O)N(C)C1` (stereo partly drawn), the clearance is given as 1.98 mL/min/kg. In the case of `O=C(O)C1C[C@H](C2CCCCC2)CN1C(=O)C[P@](=O)(O)CCCCc1ccccc1` (stereo partly drawn), the clearance is listed as 0.46 mL/min/kg. In the case of `O=C1Nc2ccc(Cl)cc2[C@@](C#CC2CC2)(C(F)(F)F)O1`, the clearance is given as 3.1 mL/min/kg. In the case of `CN[C@H]1CC[C@H](c2ccc(Cl)c(Cl)c2)c2ccccc21`, the clearance is listed as 38 mL/min/kg. For `NC(Cc1cc(I)c(Oc2ccc(O)c(I)c2)c(I)c1)C(=O)O` (stereo not drawn), the clearance is listed as 0.25 mL/min/kg. For `CCCCCOC(=O)Nc1nc(=O)n([C@@H]2O[C@H](C)[C@@H](O)[C@H]2O)cc1F`, the clearance is listed as 59.7 mL/min/kg.

Same assay, conditions: human; plasma
In the case of `CC(C)[C@@H](C)[C@@]1(C)CC[C@]2(C)[C@H]3CC[C@@H]4[C@@]5(COC[C@@]4(C)[C@@H](OC[C@](C)(N)C(C)(C)C)[C@H](n4ncnc4-c4ccncc4)C5)C3=CC[C@@]2(C)C1C(=O)O` (stereo partly drawn), the fraction unbound is listed as 0.01. In the case of `O=C(c1ccc(NS(=O)(=O)c2cccc3cccnc23)cc1)N1CCN(CC2CC2)CC1`, the fraction unbound is given as 0.02.
